According to publication PMC7816212 (Nature, 2020):

Assays:
Assay type in all cases: binding
BCL6 [1] = target: BCL6 (Homo sapiens, UniProt P41182, E41A); assay: competitive TR-FRET, displacement of FITC-BCoR peptide
BCL6 [2] = target: BCL6 (Homo sapiens, UniProt A5PL18); assay: cryo-EM of the BCL6 filament
BCL6 [3] = target: BCL6 (Homo sapiens, UniProt P41182); assay: competitive TR-FRET, displacement of FITC-BCoR peptide

| SMILES | competitive TR-FRET, displacement of FITC-BCoR peptide (BCL6 [1]) | EC50 (BCL6 [2]) [nM] | competitive TR-FRET, displacement of FITC-BCoR peptide (BCL6 [3]) |
| --- | --- | --- | --- |
| CNC(=O)COc1cc2cc(Nc3nc(N4C[C@H](C)C[C@H](C)C4)ncc3Cl)ccc2n(C)c1=O [BI-3802] | the E41A substitution did not impair drug binding to BCL6 (Extended Data Fig. 4f) | 64 |  |
| CNC(=O)COc1cc2cc(Nc3nc(N4CCC(C(=O)N(C)C)CC4)ncc3Cl)cc(OC)c2n(C)c1=O [BI-3812] |  |  | despite comparable affinity of both BI-3802 and BI-3812 to BCL6 (Extended Data Fig. 8h) |
